Test results: patent US10131652B2, “Pyrimidinyloxy benzene derivatives as herbicides” (E. I. DU PONT DE NEMOURS AND COMPANY, priority 2014, dated 2018)

Columns and labels:
Assay type in all cases: in vivo
[1] = test system: winter wheat (Triticum aestivum); assay: Test D pre-/postemergence plant response
How it was run: (§1)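 Visual injury scoring (0–100) at 13 to 15 days in greenhouse. Preemergence sprays on seeded loam/sand; postemergence sprays on 1–4 leaf plants.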

[2] = test system: johnsongrass (Sorghum halepense); assay: Test D pre-/postemergence plant response
How it was run: as §1

soybean (Glycine max) = assay: Test D pre-/postemergence plant response
How it was run: as §1

[3] = test system: waterhemp (common waterhemp, Amaranthus rudis); assay: Test D pre-/postemergence plant response
How it was run: as §1

[4] = test system: velvetleaf (Abutilon theophrasti); assay: Test D pre-/postemergence plant response
How it was run: as §1

[5] = test system: morningglory (Ipomoea coccinea); assay: Test D pre-/postemergence plant response
How it was run: as §1

[6] = test system: lambsquarters (Chenopodium album); assay: Test D pre-/postemergence plant response
How it was run: as §1

[7] = test system: ducksalad (Heteranthera limosa); assay: Test C flooded paddy test plant response; conditions: Flood, 250 g ai/ha; scale of 0 to 100 where 0 is no effect and 100 is complete control; 13 to 15 days
How it was run: (§2)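 Two-leaf stage → flood to 3 cm → compound into water → hold depth, greenhouse 13–15 d → visual score vs controls (0 none, 100 complete control).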

[8] = test system: small-flower umbrella sedge (Cyperus difformis); assay: Test C flooded paddy test plant response; conditions: Flood, 250 g ai/ha; scale of 0 to 100 where 0 is no effect and 100 is complete control; 13 to 15 days
How it was run: as §2

[9] = test system: barnyardgrass (Echinochloa crus-galli); assay: Test C flooded paddy test plant response; conditions: Flood, 250 g ai/ha; scale of 0 to 100 where 0 is no effect and 100 is complete control; 13 to 15 days
How it was run: as §2

rice (Oryza sativa) = assay: Test C flooded paddy test plant response; conditions: Flood, 250 g ai/ha; scale of 0 to 100 where 0 is no effect and 100 is complete control; 13 to 15 days
How it was run: as §2

[10] = test system: barnyardgrass (Echinochloa crus-galli); assay: Test B pre-/postemergence plant response; conditions: for Barnyardgrass plant response rating: 0 to 100 scale (0 no effect, 100 complete control)
How it was run: (§3)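 Visual injury rating, 0 (no effect) to 100 (complete control), vs untreated controls after ~10 d greenhouse. Pre: directed soil spray after planting in loam/sand. Post: plants 2–10 cm, 1–2 leaf stage. Compound in non-phytotoxic solvent plus surfactant.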

[11] = test system: pigweed (Amaranthus retroflexus); assay: Test B pre-/postemergence plant response; conditions: for Pigweed plant response rating: 0 to 100 scale (0 no effect, 100 complete control)
How it was run: as §3

[12] = test system: wheat (Triticum aestivum); assay: Test B pre-/postemergence plant response; conditions: 0 to 100 scale, 0 no effect, 100 complete control
How it was run: as §3

corn (Zea mays) = assay: Test B pre-/postemergence plant response; conditions: 0 to 100 scale, 0 no effect, 100 complete control
How it was run: as §3

[13] = test system: giant foxtail (Setaria faberii); assay: Test B pre-/postemergence plant response; conditions: for Foxtail, Giant plant response rating: 0 to 100 scale (0 no effect, 100 complete control)
How it was run: as §3

[14] = Postemergence, 16 g ai/ha, scale 0 to 100 (0 no effect, 100 complete control)
[15] = Postemergence, 31 g ai/ha, scale 0 to 100 (0 no effect, 100 complete control)
[16] = Postemergence, 62 g ai/ha, scale 0 to 100, 0 no effect, 100 complete control
[17] = Postemergence, 125 g ai/ha, scale 0 to 100, 0 no effect, 100 complete control
[18] = 31 g ai/ha, Postemergence, 0 to 100 scale, 0 no effect, 100 complete control
[19] = 125 g ai/ha, postemergence, 0 to 100 scale, 0 no effect, 100 complete control
[20] = Preemergence, 125 g ai/ha, 0 to 100 scale where 0 is no effect and 100 is complete control
[21] = Preemergence, 16 g ai/ha, scale 0 to 100 (0 no effect, 100 complete control)
[22] = Preemergence, 31 g ai/ha, scale 0 to 100 (0 no effect, 100 complete control)
[23] = Preemergence, 62 g ai/ha, scale 0 to 100 (0 no effect, 100 complete control)

Fc1ccc(Oc2ncc(Cl)cn2)c(-c2cc(C(F)F)on2)c1Cl [Compound 96]
15: Soybean plant response rating (soybean (Glycine max); [14]) | Barnyardgrass plant response rating [9]
20: Velvetleaf plant response rating [4, 14] | Plant response rating, Barnyardgrass [10, 20] | Plant response rating, Corn (corn (Zea mays); 125 g ai/ha, postemergence)
55: Plant response rating, Soybean (soybean (Glycine max); [16])
65: Lambsquarters plant response rating [6, 14] | Lambsquarters plant response rating [6, 15]
85: Waterhemp plant response rating [3, 14] | Morningglory plant response rating [5, 14]
50: Soybean plant response rating (soybean (Glycine max); [15]) | Plant response rating, Foxtail, Giant [13, 19]
95: Waterhemp plant response rating [3, 15] | Plant response rating, Lambsquarters [6, 17]
5: Plant response rating, Johnsongrass [2, 16]
40: Morningglory plant response rating [5, 15] | Plant response rating, Morningglory [5, 16] | Plant response rating, Foxtail, Giant [13, 20]
30: Plant response rating, Morningglory [5, 17] | Rice plant response rating (rice (Oryza sativa)) | Plant response rating, Barnyardgrass [10, 19]
0: Wheat plant response rating [1, 14] | Wheat plant response rating [1, 15] | Plant response rating, Wheat [1, 16] | Johnsongrass plant response rating [2, 14] | Johnsongrass plant response rating [2, 15] | Barnyardgrass plant response rating ([10]; Preemergence, 31 g ai/ha) | Plant response rating, Wheat ([12]; 31 g ai/ha, Postemergence) | Plant response rating, Wheat ([12]; 125 g ai/ha, postemergence) | Plant response rating, Corn (corn (Zea mays); 31 g ai/ha, Postemergence) | Plant response rating, Foxtail, Giant [13, 18]
100: Plant response rating, Waterhemp [3, 17] | Sedge, Umbrella plant response rating [8] | Plant response rating, Pigweed [11, 18] | Plant response rating, Pigweed [11, 19] | Plant response rating, Pigweed [11, 20]
98: Plant response rating, Waterhemp [3, 16]
10: Plant response rating, Wheat [1, 17] | Plant response rating, Johnsongrass [2, 17] | Plant response rating, Barnyardgrass [10, 18] | Foxtail, Giant plant response rating ([13]; Preemergence, 31 g ai/ha)
35: Plant response rating, Soybean (soybean (Glycine max); [17]) | Velvetleaf plant response rating [4, 15] | Plant response rating, Velvetleaf [4, 16] | Plant response rating, Velvetleaf [4, 17]
90: Plant response rating, Lambsquarters [6, 16] | Ducksalad plant response rating [7] | Pigweed plant response rating ([11]; Preemergence, 31 g ai/ha)

COc1cccc(Oc2ncc(Cl)cn2)c1-c1cc(C(F)(F)F)no1 [Compound 104]
30: Plant response rating, Corn (corn (Zea mays); 125 g ai/ha, postemergence)
25: Plant response rating (scale 0 to 100), Soybean (soybean (Glycine max); Preemergence, 125 g ai/ha) | Plant response rating, Soybean (soybean (Glycine max); [23]) | Plant response rating, Velvetleaf [4, 21] | Plant response rating (scale 0 to 100), Morningglory ([5]; Preemergence, 125 g ai/ha) | Plant response rating, Morningglory [5, 23]
80: Plant response rating, Lambsquarters [6, 22] | Sedge, Umbrella plant response rating [8] | Plant response rating, Barnyardgrass [10, 20] | Pigweed plant response rating ([11]; Preemergence, 31 g ai/ha) | Plant response rating, Foxtail, Giant [13, 19]
60: Plant response rating, Barnyardgrass [10, 19]
70: Plant response rating, Velvetleaf [4, 23]
100: Plant response rating (scale 0 to 100), Waterhemp ([3]; Preemergence, 125 g ai/ha) | Plant response rating, Waterhemp [3, 21] | Plant response rating, Waterhemp [3, 22] | Plant response rating, Waterhemp [3, 23] | Plant response rating, Pigweed [11, 20] | Plant response rating, Foxtail, Giant [13, 20]
15: Plant response rating, Johnsongrass [2, 23]
50: Plant response rating, Velvetleaf [4, 22]
65: Plant response rating (scale 0 to 100), Johnsongrass ([2]; Preemergence, 125 g ai/ha) | Plant response rating (scale 0 to 100), Velvetleaf ([4]; Preemergence, 125 g ai/ha) | Plant response rating, Lambsquarters [6, 21]
90: Plant response rating (scale 0 to 100), Lambsquarters ([6]; Preemergence, 125 g ai/ha) | Plant response rating, Lambsquarters [6, 23] | Plant response rating, Pigweed [11, 18] | Plant response rating, Pigweed [11, 19]
0: Plant response rating, Wheat [1, 21] | Plant response rating, Wheat [1, 22] | Rice plant response rating (rice (Oryza sativa)) | Plant response rating, Wheat ([12]; 31 g ai/ha, Postemergence)
40: Foxtail, Giant plant response rating ([13]; Preemergence, 31 g ai/ha)
5: Plant response rating (scale 0 to 100), Wheat ([1]; Preemergence, 125 g ai/ha) | Plant response rating, Wheat [1, 23] | Plant response rating, Johnsongrass [2, 21] | Plant response rating, Morningglory [5, 21] | Plant response rating, Morningglory [5, 22]
10: Plant response rating, Soybean (soybean (Glycine max); [21]) | Plant response rating, Barnyardgrass [10, 18] | Plant response rating, Wheat ([12]; 125 g ai/ha, postemergence) | Plant response rating, Corn (corn (Zea mays); 31 g ai/ha, Postemergence)
75: Ducksalad plant response rating [7]
20: Plant response rating, Johnsongrass [2, 22] | Plant response rating, Soybean (soybean (Glycine max); [22]) | Barnyardgrass plant response rating [9] | Barnyardgrass plant response rating ([10]; Preemergence, 31 g ai/ha) | Plant response rating, Foxtail, Giant [13, 18]
